# In US20040208783A1, “Process for the chemical and thermal disinfection” (priority 2003, published 2004):
# Key:
# Assay type in all cases: cell-based
# Aspergillus niger = assay: Quantitative suspension test, reduction factors (Test 1)
# Experimental: (§1) Reduction factors were obtained with various solutions for use (SA=Staphylococcus aureus, PA=Pseudomonas aeruginosa, EC=Escherichia coli, CA=Candida albicans, AN=Aspergillus niger, MT=Mycobacterium terrae), initial microbe count 0.8−5×10^9/ml, for CA 2×10^7/ml, neutralizer Tryp-NaCl-TLSH (No. 22). Concerning the activity on Mycobacterium terrae, cf.
# (§2) […] After acting for times of 5, 15, 30 and 60 minutes, 1 ml samples of the disinfectant/microbe mixture are taken and transferred into 9 ml of inactivation liquid (0.1% tryptone+0.85% NaCl in double-distilled water+inactivators). After a contact time not exceeding 30 minutes in the inactivation liquid, dilutions (10^−2 and 10^−4 in 0.1% tryptone+0.85% NaCl in double-distilled water) are made up. 0.1 ml samples of the inactivation liquid and the two dilutions are then transferred by spatula onto 3 CSA plates for each. As a control, the respective test microbe suspension is mixed with 10 ml of WSH in place of disinfectant. Subcultures are to be set up from this batch in the same way in parallel with the corresponding action times.
# (§3) All subcultures are incubated at 37° C. for 48 hours, in the case of Candida albicans at 37° C. for 72 hours, and the colonies are counted. The reduction is calculated as follows: CFU between 20 and 300 per CSA plate are to be evaluated. After determination of the arithmetic mean of three values, the disinfectant effect (GRt) per unit time is calculated from the formula GRt=logCFU(co) minus logCFU(D) in which CFU(co) is the number of CFU per ml without exposure to the product, and CFU(D) is the number of CFU per ml after exposure to the product.
# Candida albicans = assay: as above
# Experimental: as §1, §2, §3
# Escherichia coli = assay: as above
# Experimental: as §1, §2, §3
# Pseudomonas aeruginosa = assay: as above
# Experimental: as §1, §2, §3
# Staphylococcus aureus = assay: as above
# Experimental: as §1, §2, §3
# [1] = test system: Mycobacterium terrae (ATCC15755); assay: Mycobacterium terrae quantitative suspension test without stress (Test 2); conditions: for Reduction factor: 0.1%
# [2] = test system: bacteria, fungi and mycobacteria; assay: Quantitative suspension tests, summary of activity in words
smiles,measurement,setting,value
"CCCCC(CC)COCC(O)CO (centres unmarked) [SC 50, 1-(2-Ethylhexyl)glycerol ether]",Reduction factor,"Aspergillus niger; 0.05%, 30° C., 15′",0.08
same,Reduction factor,"Aspergillus niger; 0.05%, 30° C., 30′",0.70
same,Reduction factor,"Aspergillus niger; 0.05%, 30° C., 60′",0.60
same,Reduction factor,"Aspergillus niger; 0.05%, 50° C., 15′",0.12
same,Reduction factor,"Aspergillus niger; 0.05%, 50° C., 30′",0.12
same,Reduction factor,"Aspergillus niger; 0.05%, 50° C., 60′",−0.12
same,Reduction factor,"Aspergillus niger; 0.05%, room temperature, 15′",0.30
same,Reduction factor,"Aspergillus niger; 0.05%, room temperature, 30′",−0.10
same,Reduction factor,"Aspergillus niger; 0.05%, room temperature, 60′",0.22
same,Reduction factor,"Aspergillus niger; 0.1%, 30° C., 15′",0.30
same,Reduction factor,"Aspergillus niger; 0.1%, 30° C., 30′",0.70
same,Reduction factor,"Aspergillus niger; 0.1%, 30° C., 60′",0.60
same,Reduction factor,"Aspergillus niger; 0.1%, 50° C., 15′",−0.10
same,Reduction factor,"Aspergillus niger; 0.1%, 50° C., 30′",0.30
same,Reduction factor,"Aspergillus niger; 0.1%, 50° C., 60′",0.18
same,Reduction factor,"Aspergillus niger; 0.1%, room temperature, 15′",−0.35
same,Reduction factor,"Aspergillus niger; 0.1%, room temperature, 30′",−0.10
same,Reduction factor,"Aspergillus niger; 0.1%, room temperature, 60′",0.40
same,Reduction factor,"Candida albicans; 0.05%, 30° C., 15′",0.00
same,Reduction factor,"Candida albicans; 0.05%, 30° C., 30′",0.00
same,Reduction factor,"Candida albicans; 0.05%, 30° C., 60′",0.00
same,Reduction factor,"Candida albicans; 0.05%, 40° C., 15′",0.54
same,Reduction factor,"Candida albicans; 0.05%, 40° C., 30′",0.45
same,Reduction factor,"Candida albicans; 0.05%, 40° C., 60′",0.59
same,Reduction factor,"Candida albicans; 0.05%, 50° C., 15′",0.00
same,Reduction factor,"Candida albicans; 0.05%, 50° C., 30′",0.00
same,Reduction factor,"Candida albicans; 0.05%, 50° C., 60′",1.08
same,Reduction factor,"Candida albicans; 0.05%, room temperature, 15′",0.00
same,Reduction factor,"Candida albicans; 0.05%, room temperature, 30′",0.00
same,Reduction factor,"Candida albicans; 0.05%, room temperature, 60′",0.00
same,Reduction factor,"Candida albicans; 0.1%, 30° C., 15′",0.10
same,Reduction factor,"Candida albicans; 0.1%, 30° C., 30′",−0.08
same,Reduction factor,"Candida albicans; 0.1%, 30° C., 60′",0.64
same,Reduction factor,"Candida albicans; 0.1%, 40° C., 15′",0.55
same,Reduction factor,"Candida albicans; 0.1%, 40° C., 30′",0.46
same,Reduction factor,"Candida albicans; 0.1%, 40° C., 60′",0.65
same,Reduction factor,"Candida albicans; 0.1%, 50° C., 15′",1.07
same,Reduction factor,"Candida albicans; 0.1%, 50° C., 30′",1.53
same,Reduction factor,"Candida albicans; 0.1%, 50° C., 60′",4.20
same,Reduction factor,"Candida albicans; 0.1%, room temperature, 15′",0.00
same,Reduction factor,"Candida albicans; 0.1%, room temperature, 30′",0.00
same,Reduction factor,"Candida albicans; 0.1%, room temperature, 60′",0.00
same,Reduction factor,"Escherichia coli; 0.05%, 30° C., 15′",0.13
same,Reduction factor,"Escherichia coli; 0.05%, 30° C., 30′",0.25
same,Reduction factor,"Escherichia coli; 0.05%, 30° C., 60′",0.36
same,Reduction factor,"Escherichia coli; 0.05%, 40° C., 15′",0.00
same,Reduction factor,"Escherichia coli; 0.05%, 40° C., 30′",0.00
same,Reduction factor,"Escherichia coli; 0.05%, 40° C., 60′",0.00
same,Reduction factor,"Escherichia coli; 0.05%, 50° C., 15′",1.17
same,Reduction factor,"Escherichia coli; 0.05%, 50° C., 30′",1.70
same,Reduction factor,"Escherichia coli; 0.05%, 50° C., 60′",2.85
same,Reduction factor,"Escherichia coli; 0.05%, room temperature, 15′",0.00
same,Reduction factor,"Escherichia coli; 0.05%, room temperature, 30′",0.43
same,Reduction factor,"Escherichia coli; 0.05%, room temperature, 60′",0.25
same,Reduction factor,"Escherichia coli; 0.1%, 30° C., 15′",0.54
same,Reduction factor,"Escherichia coli; 0.1%, 30° C., 30′",0.58
same,Reduction factor,"Escherichia coli; 0.1%, 30° C., 60′",1.15
same,Reduction factor,"Escherichia coli; 0.1%, 40° C., 15′",1.84
same,Reduction factor,"Escherichia coli; 0.1%, 40° C., 30′",3.27
same,Reduction factor,"Escherichia coli; 0.1%, 40° C., 60′",3.46
same,Reduction factor,"Escherichia coli; 0.1%, 50° C., 15′",3.74
same,Reduction factor,"Escherichia coli; 0.1%, 50° C., 30′",4.95
same,Reduction factor,"Escherichia coli; 0.1%, 50° C., 60′",4.90
same,Reduction factor,"Escherichia coli; 0.1%, room temperature, 15′",0.00
same,Reduction factor,"Escherichia coli; 0.1%, room temperature, 30′",0.54
same,Reduction factor,"Escherichia coli; 0.1%, room temperature, 60′",0.50
same,Reduction factor,"Pseudomonas aeruginosa; 0.05%, 30° C., 15′",0.00
same,Reduction factor,"Pseudomonas aeruginosa; 0.05%, 30° C., 30′",0.00
same,Reduction factor,"Pseudomonas aeruginosa; 0.05%, 30° C., 60′",0.00
same,Reduction factor,"Pseudomonas aeruginosa; 0.05%, 40° C., 15′",0.00
same,Reduction factor,"Pseudomonas aeruginosa; 0.05%, 40° C., 30′",0.00
same,Reduction factor,"Pseudomonas aeruginosa; 0.05%, 40° C., 60′",0.00
same,Reduction factor,"Pseudomonas aeruginosa; 0.05%, 50° C., 15′",0.00
same,Reduction factor,"Pseudomonas aeruginosa; 0.05%, 50° C., 30′",0.85
same,Reduction factor,"Pseudomonas aeruginosa; 0.05%, 50° C., 60′",0.96
same,Reduction factor,"Pseudomonas aeruginosa; 0.05%, room temperature, 15′",0.00
same,Reduction factor,"Pseudomonas aeruginosa; 0.05%, room temperature, 30′",0.00
same,Reduction factor,"Pseudomonas aeruginosa; 0.05%, room temperature, 60′",0.00
same,Reduction factor,"Pseudomonas aeruginosa; 0.1%, 30° C., 15′",0.00
same,Reduction factor,"Pseudomonas aeruginosa; 0.1%, 30° C., 30′",0.00
same,Reduction factor,"Pseudomonas aeruginosa; 0.1%, 30° C., 60′",1.01
same,Reduction factor,"Pseudomonas aeruginosa; 0.1%, 40° C., 15′",1.03
same,Reduction factor,"Pseudomonas aeruginosa; 0.1%, 40° C., 30′",1.10
same,Reduction factor,"Pseudomonas aeruginosa; 0.1%, 40° C., 60′",1.14
same,Reduction factor,"Pseudomonas aeruginosa; 0.1%, 50° C., 15′",3.55
same,Reduction factor,"Pseudomonas aeruginosa; 0.1%, 50° C., 30′",3.50
same,Reduction factor,"Pseudomonas aeruginosa; 0.1%, 50° C., 60′",4.00
same,Reduction factor,"Pseudomonas aeruginosa; 0.1%, room temperature, 15′",0.00
same,Reduction factor,"Pseudomonas aeruginosa; 0.1%, room temperature, 30′",0.00
same,Reduction factor,"Pseudomonas aeruginosa; 0.1%, room temperature, 60′",0.00
same,Reduction factor,"Staphylococcus aureus; 0.05%, 30° C., 15′",0.00
same,Reduction factor,"Staphylococcus aureus; 0.05%, 30° C., 30′",0.00
same,Reduction factor,"Staphylococcus aureus; 0.05%, 30° C., 60′",0.00
same,Reduction factor,"Staphylococcus aureus; 0.05%, 40° C., 15′",0.70
same,Reduction factor,"Staphylococcus aureus; 0.05%, 40° C., 30′",0.88
same,Reduction factor,"Staphylococcus aureus; 0.05%, 40° C., 60′",0.57
same,Reduction factor,"Staphylococcus aureus; 0.05%, 50° C., 15′",0.58
same,Reduction factor,"Staphylococcus aureus; 0.05%, 50° C., 30′",0.81
same,Reduction factor,"Staphylococcus aureus; 0.05%, 50° C., 60′",0.29
same,Reduction factor,"Staphylococcus aureus; 0.05%, room temperature, 15′",0.00
same,Reduction factor,"Staphylococcus aureus; 0.05%, room temperature, 30′",0.00
same,Reduction factor,"Staphylococcus aureus; 0.05%, room temperature, 60′",0.00
same,Reduction factor,"Staphylococcus aureus; 0.1%, 30° C., 15′",0.78
same,Reduction factor,"Staphylococcus aureus; 0.1%, 30° C., 30′",0.53
same,Reduction factor,"Staphylococcus aureus; 0.1%, 30° C., 60′",0.35
same,Reduction factor,"Staphylococcus aureus; 0.1%, 40° C., 15′",0.97
same,Reduction factor,"Staphylococcus aureus; 0.1%, 40° C., 30′",1.56
same,Reduction factor,"Staphylococcus aureus; 0.1%, 40° C., 60′",1.45
same,Reduction factor,"Staphylococcus aureus; 0.1%, 50° C., 15′",2.44
same,Reduction factor,"Staphylococcus aureus; 0.1%, 50° C., 30′",4.93
same,Reduction factor,"Staphylococcus aureus; 0.1%, 50° C., 60′",4.70
same,Reduction factor,"Staphylococcus aureus; 0.1%, room temperature, 15′",0.00
same,Reduction factor,"Staphylococcus aureus; 0.1%, room temperature, 30′",0.00
same,Reduction factor,"Staphylococcus aureus; 0.1%, room temperature, 60′",0.96
same,Activity on Mycobacterium terrae (in words),"[1]; 0.05% by weight, 50° C., 60 minutes","neither 0.05% by weight SC 50 nor 0.75% by weight POE, even acting for a time of 60 minutes, display any activity"
same,Reduction factor,"[1]; 30° C., 15′",0.00
same,Reduction factor,"[1]; 30° C., 30′",0.00
same,Reduction factor,"[1]; 30° C., 60′",0.00
same,Reduction factor,"[1]; 40° C., 15′",0.00
same,Reduction factor,"[1]; 40° C., 30′",0.00
same,Reduction factor,"[1]; 40° C., 60′",0.00
same,Reduction factor,"[1]; 50° C., 15′",3.10
same,Reduction factor,"[1]; 50° C., 30′",3.34
same,Reduction factor,"[1]; 50° C., 60′",3.48
same,Reduction factor,"[1]; room temperature, 15′",0.00
same,Reduction factor,"[1]; room temperature, 30′",0.00
same,Reduction factor,"[1]; room temperature, 60′",0.00
same,Activity (in words),"[2]; 0.1% by weight solution, 50° C.","broad activity on gram-positive and gram-negative bacteria, yeasts and mycobacteria"
same,Activity (in words),"[2]; 0.1% by weight, low temperature",virtually no antimicrobial activity
same,Activity on bacteria (gram-positive and gram-negative) and mycobacteria (in words),[2]; above 25° C.,particularly active
same,Activity on yeasts (e.g. Candida albicans) and moulds (e.g. Aspergillus niger) (in words),[2]; use concentration 0.1% by weight,still requires improvement
